Reference: patent US20050075269A1, “Substituted benzofuran-2-carboxamides derivatives” (priority 2001, published 2005)
Counter-ions that a name gives are not always drawn.

## CNCCNC(=O)c1cc2cc(N3CCN(CCCCc4c[nH]c5ccc(C#N)cc45)CC3)ccc2o1 (as salt: hydrochloride) [f), N-(2-methylaminoethyl)-5-{4-[4-(5-cyano-1H-indol-3-yl)butyl]piperazin-1-yl}benzofuran-2-carboxamide]
  melting point: > 233 °C
